Three compounds from patent US6075132A, “Ursodeoxycholic acid derivatives and methods for producing them” (Bio Research Corporation of Yokohama, priority 1998, dated 2000) can be followed below.

SMILES strings stand for the structures. Converted amounts (≈) assume the structure as drawn. Read-outs that look alike come from different tables or passages of the source.

The series is described as follows: Solubility in water (membrane-filtered supernatant after 18 h stirring; phenol-sulfuric acid method and HPLC). The series is classed as physicochemical. As to conditions: for solubility in water relative to that of ursodeoxycholic acid: 1080 min. How it is done: 20 mg of the ursodeoxycholic acid derivative prepared above and shown in Table 1 below was sampled, to which was added 0.2 ml of water and stirred for 18 hours. The resulting supernatant was taken out through filtration with a membrane filter (0.45μm), and analyzed according to the phenol-sulfuric acid method and through HPLC. The condition for HPLC was as follows:
Column: YMC's YMC-Pack ODS-AQ-303 (4.6×250 mm)
Detector: Photo-diode array detector (202 nm)
Amount Charged into Column: 20 μl

As for `C[C@H](CCC(=O)OCCOC1O[C@H](CO)[C@@H](O)[C@H](O)[C@H]1O)[C@H]1CC[C@H]2[C@@H]3[C@@H](O)C[C@@H]4C[C@H](O)CC[C@]4(C)[C@H]3CC[C@]12C` (stereo partly drawn) [24-GLG-ursodeoxycholic acid, glycosyloxyethyl-24-ursodeoxycholic acid], the “solubility in water relative to that of ursodeoxycholic acid” value is “about 13 times”. This compound returned a solubility at 18 h (water) of 511 µg/mL (≈ 853 µM).
Regarding `C[C@H](CCC(=O)O)[C@H]1CC[C@H]2[C@@H]3[C@@H](O)C[C@@H]4C[C@H](O)CC[C@]4(C)[C@H]3CC[C@]12C` [Ursodeoxycholic acid, ursodeoxycholic acid], the solubility at 18 h (water, stirred for 18 hours, read-out: Solubility in Water) is 38 µg/mL (≈ 96.8 µM).
Take `C[C@H](CCC(=O)O)[C@H]1CC[C@H]2[C@@H]3[C@@H](OC(=O)COC4O[C@H](CO)[C@@H](O)[C@H](O)[C@H]4O)C[C@@H]4C[C@H](OC(=O)COC5O[C@H](CO)[C@@H](O)[C@H](O)[C@H]5O)CC[C@]4(C)[C@H]3CC[C@]12C` (stereo partly drawn) [3,7-GLG-ursodeoxycholic acid, diglycosyloxyacetyl-3,7-ursodeoxycholic acid]: the “solubility in water relative to that of ursodeoxycholic acid” value is “about 2500 times”. Further, for the setting “water”, the concentration in solution (solubility at 18 h) was 95000 µg/mL (≈ 114000 µM). Also, where the note is “water, 18 h”, the “Solubility in Water” value was 95000 µg/mL (≈ 114000 µM).

As a reminder, the solubility is how much of the substance goes into solution per volume.
